ChEMBL document CHEMBL1153237, “3-(3-Aryloxyaryl)imidazo[1,2-a]pyridine sulfones as liver X receptor agonists” (Bioorg Med Chem Lett, 2010)
Values after ≈ are worked out from the molar mass of the structure shown.

Tested on: not listed separately
Test: Tmax in C57 mouse at 2.5 mg/kg, po
Type: ADME, organism-based
Parameters: dose 2.5 mg/kg, route oral
Conditions: in vivo; call rule not given here

Tmax | SMILES
120 min | Cc1cnc2c(C(F)(F)F)cccc2c1-c1cccc(Oc2cccc(S(C)(=O)=O)c2)c1

Tested on: THP-1
Test: Induction of ABCA1 mRNA upregulation in human THP1 cells relative to T0901317
Type: functional
Conditions: not given

SMILES | Efficacy
CCS(=O)(=O)c1cccc(Oc2cccc(-c3c(C)nc4c(C(F)(F)F)cccn34)c2)c1 | 100%
Cc1nc2c(C(F)(F)F)cccn2c1-c1cccc(Oc2cccc(S(C)(=O)=O)c2)c1 | 99%
CCc1nc2c(C(F)(F)F)cccn2c1-c1cccc(Oc2cccc(S(C)(=O)=O)c2)c1 | 65%
CS(=O)(=O)c1cccc(Oc2cccc(-c3c(Cc4ccccc4)nc4c(C(F)(F)F)cccn34)c2)c1 | 105%
CS(=O)(=O)c1cccc(Oc2cccc(-c3c(CN4CCCCC4)nc4c(C(F)(F)F)cccn34)c2)c1 | 100%
CS(=O)(=O)c1cccc(Oc2cccc(-c3c(CN4CCSC4)nc4c(C(F)(F)F)cccn34)c2)c1 | 98%
O=S(=O)(c1ccccc1)N(CC(F)(F)F)c1ccc(C(O)(C(F)(F)F)C(F)(F)F)cc1 [T091317] | 100%

Tested on: not listed separately
Test: Half life in mouse liver microsomes
Type: ADME, Microsome
Conditions: not given

half-life | SMILES
30 min | CCS(=O)(=O)c1cccc(Oc2cccc(-c3c(C)nc4c(C(F)(F)F)cccn34)c2)c1
30 min | Cc1nc2c(C(F)(F)F)cccn2c1-c1cccc(Oc2cccc(S(C)(=O)=O)c2)c1
20 min | CCc1nc2c(C(F)(F)F)cccn2c1-c1cccc(Oc2cccc(S(C)(=O)=O)c2)c1
2 min | CS(=O)(=O)c1cccc(Oc2cccc(-c3c(Cc4ccccc4)nc4c(C(F)(F)F)cccn34)c2)c1
2 min | CS(=O)(=O)c1cccc(Oc2cccc(-c3c(CN4CCCCC4)nc4c(C(F)(F)F)cccn34)c2)c1
3 min | CS(=O)(=O)c1cccc(Oc2cccc(-c3c(CN4CCSC4)nc4c(C(F)(F)F)cccn34)c2)c1
30 min | O=S(=O)(c1ccccc1)N(CC(F)(F)F)c1ccc(C(O)(C(F)(F)F)C(F)(F)F)cc1 [T091317]

Tested on: HepG2
Test: Cytotoxic effect as decreased triglyceride level in HepG2 cells after 10 uM treatment
Type: cell-based
Conditions: human, hepg2, 10 µM

SMILES | Decreased_triglyceride
CCS(=O)(=O)c1cccc(Oc2cccc(-c3c(C)nc4c(C(F)(F)F)cccn34)c2)c1 | Cytotoxic potential

Tested on: not listed separately
Test: Half life in rat liver microsomes
Type: ADME, Microsome
Conditions: not given

half-life | SMILES
30 min | CCS(=O)(=O)c1cccc(Oc2cccc(-c3c(C)nc4c(C(F)(F)F)cccn34)c2)c1
30 min | Cc1nc2c(C(F)(F)F)cccn2c1-c1cccc(Oc2cccc(S(C)(=O)=O)c2)c1
30 min | CCc1nc2c(C(F)(F)F)cccn2c1-c1cccc(Oc2cccc(S(C)(=O)=O)c2)c1
7 min | CS(=O)(=O)c1cccc(Oc2cccc(-c3c(Cc4ccccc4)nc4c(C(F)(F)F)cccn34)c2)c1
5 min | CS(=O)(=O)c1cccc(Oc2cccc(-c3c(CN4CCCCC4)nc4c(C(F)(F)F)cccn34)c2)c1
23 min | CS(=O)(=O)c1cccc(Oc2cccc(-c3c(CN4CCSC4)nc4c(C(F)(F)F)cccn34)c2)c1
30 min | O=S(=O)(c1ccccc1)N(CC(F)(F)F)c1ccc(C(O)(C(F)(F)F)C(F)(F)F)cc1 [T091317]

Tested on: not listed separately
Test: AUC (0 to last) in C57 mouse at 2.5 mg/kg, po
Type: ADME, organism-based
Parameters: time 0 - last, dose 2.5 mg/kg, route oral
Conditions: plasma

AUC(0-t) | SMILES
1690 ng·h/mL | Cc1cnc2c(C(F)(F)F)cccc2c1-c1cccc(Oc2cccc(S(C)(=O)=O)c2)c1

Tested on: not listed separately
Test: AUC (0 to last) in C57 mouse at 10 mg/kg, po
Type: ADME, organism-based
Parameters: dose 10 mg/kg, route oral, time 0 - last
Conditions: plasma

AUC(0-t) | SMILES
8940 ng·h/mL | Cc1nc2c(C(F)(F)F)cccc2n1-c1cccc(Oc2cccc(S(C)(=O)=O)c2)c1
7790 ng·h/mL | CCS(=O)(=O)c1cccc(Oc2cccc(-c3c(C)nc4c(C(F)(F)F)cccn34)c2)c1
4670 ng·h/mL | Cc1nc2c(C(F)(F)F)cccn2c1-c1cccc(Oc2cccc(S(C)(=O)=O)c2)c1

Tested on: HepG2
Test: cells
Conditions: Homo sapiens

EC50 | SMILES
72 nM | Cc1nc2c(C(F)(F)F)cccn2c1-c1cccc(Oc2cccc(S(C)(=O)=O)c2)c1
227 nM | CCc1nc2c(C(F)(F)F)cccn2c1-c1cccc(Oc2cccc(S(C)(=O)=O)c2)c1
65 nM | CS(=O)(=O)c1cccc(Oc2cccc(-c3c(Cc4ccccc4)nc4c(C(F)(F)F)cccn34)c2)c1
128 nM | CS(=O)(=O)c1cccc(Oc2cccc(-c3c(CN4CCCCC4)nc4c(C(F)(F)F)cccn34)c2)c1
42 nM | CS(=O)(=O)c1cccc(Oc2cccc(-c3c(CN4CCSC4)nc4c(C(F)(F)F)cccn34)c2)c1

Tested on: HepG2
Test: Increase in cellular triglyceride level in human HepG2 cells relative to T0901317
Type: functional
Conditions: not given

SMILES | Efficacy
Cc1nc2c(C(F)(F)F)cccn2c1-c1cccc(Oc2cccc(S(C)(=O)=O)c2)c1 | 8%
CCc1nc2c(C(F)(F)F)cccn2c1-c1cccc(Oc2cccc(S(C)(=O)=O)c2)c1 | 38%
CS(=O)(=O)c1cccc(Oc2cccc(-c3c(Cc4ccccc4)nc4c(C(F)(F)F)cccn34)c2)c1 | 81%
CS(=O)(=O)c1cccc(Oc2cccc(-c3c(CN4CCCCC4)nc4c(C(F)(F)F)cccn34)c2)c1 | 26%
CS(=O)(=O)c1cccc(Oc2cccc(-c3c(CN4CCSC4)nc4c(C(F)(F)F)cccn34)c2)c1 | 36%

Target: T1, Oxysterols receptor LXR-alpha (Homo sapiens, UniProt Q13133)
T1 sequence (Q13133 whole entry): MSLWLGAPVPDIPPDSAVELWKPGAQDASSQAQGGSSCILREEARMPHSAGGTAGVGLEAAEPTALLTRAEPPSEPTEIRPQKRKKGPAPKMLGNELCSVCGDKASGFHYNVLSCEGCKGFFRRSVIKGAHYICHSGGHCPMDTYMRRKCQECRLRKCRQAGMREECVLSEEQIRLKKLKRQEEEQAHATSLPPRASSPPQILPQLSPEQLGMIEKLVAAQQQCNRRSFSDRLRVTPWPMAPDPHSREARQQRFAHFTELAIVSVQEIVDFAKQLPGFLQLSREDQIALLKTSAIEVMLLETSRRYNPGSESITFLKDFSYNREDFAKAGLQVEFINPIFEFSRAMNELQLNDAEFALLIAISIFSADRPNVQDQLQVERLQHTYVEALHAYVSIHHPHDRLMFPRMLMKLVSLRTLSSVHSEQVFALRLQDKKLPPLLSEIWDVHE
Test: not given
Conditions: huh-7

EC50 | SMILES
Not Active | CC(C)c1nc2c(C(F)(F)F)cccn2c1-c1ccc(-c2ccc(S(C)(=O)=O)cc2)cc1

Target: T2, Oxysterols receptor LXR-beta (Homo sapiens, UniProt P55055)
T2 sequence (P55055 whole entry): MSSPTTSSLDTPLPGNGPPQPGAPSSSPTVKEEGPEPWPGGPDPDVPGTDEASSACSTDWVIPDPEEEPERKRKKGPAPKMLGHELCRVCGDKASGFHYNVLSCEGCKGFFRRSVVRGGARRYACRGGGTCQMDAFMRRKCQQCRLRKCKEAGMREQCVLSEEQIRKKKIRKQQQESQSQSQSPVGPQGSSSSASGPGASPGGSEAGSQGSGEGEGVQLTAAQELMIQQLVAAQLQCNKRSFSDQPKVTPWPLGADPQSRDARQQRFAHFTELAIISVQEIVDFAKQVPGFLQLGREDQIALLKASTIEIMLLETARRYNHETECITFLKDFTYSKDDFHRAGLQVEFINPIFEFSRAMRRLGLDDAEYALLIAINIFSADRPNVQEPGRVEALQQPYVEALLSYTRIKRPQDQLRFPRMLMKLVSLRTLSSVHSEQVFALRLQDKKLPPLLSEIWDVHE
Test: not given
Conditions: huh-7

EC50 | SMILES
Not Active | CC(C)c1nc2c(C(F)(F)F)cccn2c1-c1ccc(-c2cccc(S(C)(=O)=O)c2)cc1
Not Active | CC(C)c1nc2c(C(F)(F)F)cccn2c1-c1ccc(-c2ccc(S(C)(=O)=O)cc2)cc1

Tested on: not listed separately
Test: Half life in human liver microsomes
Type: ADME, Microsome
Conditions: not given

half-life | SMILES
21 min | CCS(=O)(=O)c1cccc(Oc2cccc(-c3c(C)nc4c(C(F)(F)F)cccn34)c2)c1
30 min | Cc1nc2c(C(F)(F)F)cccn2c1-c1cccc(Oc2cccc(S(C)(=O)=O)c2)c1
30 min | CCc1nc2c(C(F)(F)F)cccn2c1-c1cccc(Oc2cccc(S(C)(=O)=O)c2)c1
19 min | CS(=O)(=O)c1cccc(Oc2cccc(-c3c(Cc4ccccc4)nc4c(C(F)(F)F)cccn34)c2)c1
3 min | CS(=O)(=O)c1cccc(Oc2cccc(-c3c(CN4CCCCC4)nc4c(C(F)(F)F)cccn34)c2)c1
6 min | CS(=O)(=O)c1cccc(Oc2cccc(-c3c(CN4CCSC4)nc4c(C(F)(F)F)cccn34)c2)c1
30 min | O=S(=O)(c1ccccc1)N(CC(F)(F)F)c1ccc(C(O)(C(F)(F)F)C(F)(F)F)cc1 [T091317]

Tested on: not listed separately
Test: Cmax in C57 mouse at 10 mg/kg, po
Type: ADME, organism-based
Parameters: dose 10 mg/kg, route oral
Conditions: in vivo

Cmax | SMILES
614 ng/mL | Cc1nc2c(C(F)(F)F)cccc2n1-c1cccc(Oc2cccc(S(C)(=O)=O)c2)c1
1420 ng/mL | CCS(=O)(=O)c1cccc(Oc2cccc(-c3c(C)nc4c(C(F)(F)F)cccn34)c2)c1
1140 ng/mL | Cc1nc2c(C(F)(F)F)cccn2c1-c1cccc(Oc2cccc(S(C)(=O)=O)c2)c1

Tested on: not listed separately
Test: Tmax in C57 mouse at 10 mg/kg, po
Type: ADME, organism-based
Parameters: dose 10 mg/kg, route oral
Conditions: in vivo

Tmax | SMILES
120 min | Cc1nc2c(C(F)(F)F)cccc2n1-c1cccc(Oc2cccc(S(C)(=O)=O)c2)c1
60 min | CCS(=O)(=O)c1cccc(Oc2cccc(-c3c(C)nc4c(C(F)(F)F)cccn34)c2)c1
15 min | Cc1nc2c(C(F)(F)F)cccn2c1-c1cccc(Oc2cccc(S(C)(=O)=O)c2)c1

Tested on: not listed separately
Test: Half life in C57 mouse at 10 mg/kg, po
Type: ADME, organism-based
Parameters: dose 10 mg/kg, route oral
Conditions: in vivo

half-life | SMILES
366 min | CCS(=O)(=O)c1cccc(Oc2cccc(-c3c(C)nc4c(C(F)(F)F)cccn34)c2)c1
270 min | Cc1nc2c(C(F)(F)F)cccn2c1-c1cccc(Oc2cccc(S(C)(=O)=O)c2)c1

Target: T1, Oxysterols receptor LXR-alpha
Test: not given
Conditions: not given

IC50 | SMILES
> 1000 nM | CC(C)c1nc2c(C(F)(F)F)cccn2c1-c1ccc(-c2ccc(S(C)(=O)=O)cc2)cc1
> 1000 nM | CC(C)c1nc2c(C(F)(F)F)cccn2c1-c1cccc(OCc2ccc(S(C)(=O)=O)cc2)c1

Tested on: not listed separately
Test: Solubility of the compound
Type: physicochemical
Conditions: not given

solubility | SMILES
214 µg/mL (≈ 479 µM) | Cc1nc2c(C(F)(F)F)cccc2n1-c1cccc(Oc2cccc(S(C)(=O)=O)c2)c1
< 1 µg/mL | Cc1cnc2c(C(F)(F)F)cccc2c1-c1cccc(Oc2cccc(S(C)(=O)=O)c2)c1
68 µg/mL (≈ 148 µM) | CCS(=O)(=O)c1cccc(Oc2cccc(-c3c(C)nc4c(C(F)(F)F)cccn34)c2)c1
> 100 µg/mL | Cc1nc2c(C(F)(F)F)cccn2c1-c1cccc(Oc2cccc(S(C)(=O)=O)c2)c1
228 µg/mL (≈ 495 µM) | CCc1nc2c(C(F)(F)F)cccn2c1-c1cccc(Oc2cccc(S(C)(=O)=O)c2)c1
3 µg/mL (≈ 5.74 µM) | CS(=O)(=O)c1cccc(Oc2cccc(-c3c(Cc4ccccc4)nc4c(C(F)(F)F)cccn34)c2)c1
73 µg/mL (≈ 138 µM) | CS(=O)(=O)c1cccc(Oc2cccc(-c3c(CN4CCCCC4)nc4c(C(F)(F)F)cccn34)c2)c1
1 µg/mL (≈ 1.87 µM) | CS(=O)(=O)c1cccc(Oc2cccc(-c3c(CN4CCSC4)nc4c(C(F)(F)F)cccn34)c2)c1

Target: T2, Oxysterols receptor LXR-beta
Test: not given
Conditions: not given

IC50 | SMILES
> 1000 nM | CC(C)c1nc2c(C(F)(F)F)cccn2c1-c1ccc(-c2ccc(S(C)(=O)=O)cc2)cc1
> 1000 nM | CC(C)c1nc2c(C(F)(F)F)cccn2c1-c1cccc(OCc2ccc(S(C)(=O)=O)cc2)c1

Tested on: HepG2
Test: Cytotoxic effect as decreased triglyceride level in HepG2 cells after 3 uM treatment
Type: cell-based
Conditions: human, hepg2, 3 µM

SMILES | Decreased_triglyceride
CCS(=O)(=O)c1cccc(Oc2cccc(-c3c(C)nc4c(C(F)(F)F)cccn34)c2)c1 | Cytotoxic potential
Cc1nc2c(C(F)(F)F)cccn2c1-c1cccc(Oc2cccc(S(C)(=O)=O)c2)c1 | Cytotoxic potential

Tested on: THP-1
Test: cells
Conditions: Homo sapiens

EC50 | SMILES
130 nM | CCS(=O)(=O)c1cccc(Oc2cccc(-c3c(C)nc4c(C(F)(F)F)cccn34)c2)c1
125 nM | Cc1nc2c(C(F)(F)F)cccn2c1-c1cccc(Oc2cccc(S(C)(=O)=O)c2)c1
243 nM | CCc1nc2c(C(F)(F)F)cccn2c1-c1cccc(Oc2cccc(S(C)(=O)=O)c2)c1
120 nM | CS(=O)(=O)c1cccc(Oc2cccc(-c3c(Cc4ccccc4)nc4c(C(F)(F)F)cccn34)c2)c1
44 nM | CS(=O)(=O)c1cccc(Oc2cccc(-c3c(CN4CCCCC4)nc4c(C(F)(F)F)cccn34)c2)c1
10 nM | CS(=O)(=O)c1cccc(Oc2cccc(-c3c(CN4CCSC4)nc4c(C(F)(F)F)cccn34)c2)c1

Tested on: not listed separately
Test: Cmax in C57 mouse at 2.5 mg/kg, po
Type: ADME, organism-based
Parameters: dose 2.5 mg/kg, route oral
Conditions: in vivo

Cmax | SMILES
457 ng/mL | Cc1cnc2c(C(F)(F)F)cccc2c1-c1cccc(Oc2cccc(S(C)(=O)=O)c2)c1
